Source: patent US20140056835A1, “COSMETIC COMPOSITION FOR SKIN WHITENING COMPRISING SMALL MOLECULE-PEPTIDE CONJUGATE” (AE KYUNG INDUSTRIAL CO., LTD., priority 2012, published 2014)

How the values were obtained:
B16F1 melanoma cells = assay: Test for inhibitory effect on melanin production; assay type: cell-based; details: sample 50 uM, incubated for 2 days; for inhibition at 50 µM: Mus musculus, B16-F1, 48 h, read-out: Melanin production inhibition rate (%)
Procedure: Inhibitory effect on melanin formation was measured using B16F1 melanoma cells. B16F1 melanoma cells were inoculated into a 6-well plate at a density of 3×10^5 (cells/well) with DMEM containing 10% FBS. […] After 2 days, the medium was removed and the cells were washed with PBS (phosphate buffered saline), treated with trypsin, and then retrieved. The retrieved cells were centrifuged and the supernatant was discarded. Intracellular melanin was obtained by treating the cells with 0.2 ml of 1N NaOH+10% DMSO solution. The collected cells were transferred to a 96-well plate and absorbance was measured at 490 nm. The amount of intracellular melanin was estimated using standard curve with synthetic melanin as a standard substance. The amount of protein was quantified via absorbance measurement using a protein assay reagent. For the amount of melanin produced, the amount of melanin for a given protein was estimated.

Tyrosinase = molecular target: T1, Tyrosinase (Agaricus bisporus, UniProt C7FF04); assay: Test for inhibitory effect on tyrosinase activity (dopachrome absorbance at 475 nm); assay type: biochemical, mushrooms; details: L-tyrosine substrate, 10 min at 37° C.; for inhibition at 50 µM / inhibition at 100 µM: read-out: Tyrosinase activity inhibition rate (%)
T1 construct: purchased Sigma; host or cells: natural source: mushrooms
T1 sequence (C7FF04 1-392 limits assumed): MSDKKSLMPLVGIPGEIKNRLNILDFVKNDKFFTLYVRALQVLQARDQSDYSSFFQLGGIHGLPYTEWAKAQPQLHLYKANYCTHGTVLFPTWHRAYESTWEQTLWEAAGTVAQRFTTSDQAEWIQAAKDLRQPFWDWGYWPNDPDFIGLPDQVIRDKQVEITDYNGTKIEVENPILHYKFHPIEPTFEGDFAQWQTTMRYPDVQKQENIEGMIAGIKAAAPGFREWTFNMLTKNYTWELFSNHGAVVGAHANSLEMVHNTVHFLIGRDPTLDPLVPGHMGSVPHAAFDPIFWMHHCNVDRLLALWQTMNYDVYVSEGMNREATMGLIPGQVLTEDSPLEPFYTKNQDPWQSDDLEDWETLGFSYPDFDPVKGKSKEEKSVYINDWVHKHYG

skin = details: in vivo

inhibition at 50 µM (Tyrosinase; sample 50 uM) [%]	inhibition at 100 µM (Tyrosinase; sample 100 uM) [%]	Compound	inhibition at 50 µM (B16F1 melanoma cells) [%]	Degree of irritation (skin)	Skin irritation (skin)	Melanin production inhibition rate (%) (B16F1 melanoma cells)	Tyrosinase activity inhibition rate (%) (Tyrosinase; sample 50 uM)	Tyrosinase activity inhibition rate (%) (Tyrosinase; sample 100 uM)
9.2	14.4	OC[C@H]1O[C@@H](Oc2ccc(O)cc2)[C@H](O)[C@@H](O)[C@@H]1O [Arbutin]	18	–	–	–	–	–
–	–	CC(C)C[C@H](NC(=O)/C=C/c1ccc(O)c(O)c1)C(=O)NCC(N)=O [Caffeic acid-LG-NH2, Caffeic acid-Leu-Gly-NH2]	–	None	no irritation	41	24.2	26.8
–	21.3	O=C(O)/C=C/c1ccc(O)c(O)c1 [Caffeic acid]	16	–	–	–	–	–
–	–	CC(C)C[C@H](NC(=O)/C=C/c1ccc(O)cc1)C(=O)NCC(N)=O [Coumaric acid-LG-NH2, Coumaric acid-Leu-Gly-NH2]	–	None	no irritation	45.3	25.1	34.8
21.3	24.6	O=C(O)/C=C/c1ccc(O)cc1 [Coumaric acid]	23	–	–	–	–	–
